“And” between values parts separate entries of the source, which are not always exact repeats. Identical values can stand only once. “Also recorded” adds a separate entry of the source. Positions of bridges follow the written chain, without caps; N, C: chain ends. Chains are numbered I, II in the order given. No end group written: not given here.
Tests used:
[1] = test system: rat cerebellar granule neurons cultured on monolayers of NIH 3T3 fibroblasts; assay: in vitro neurite outgrowth co-culture assay (axon regeneration); format: cell-based
Description: An example of such an assay is a co-culture assay in which neurons are cultured on top of cellular monolayers for 16 hours, before being fixed and stained with a neuron-specific antibody. The mean length of the longest neurite per cell can then be determined by fluorescence microscopy using an appropriate image analysis programme. The neurons may be, for example, (in this case cerebellar granule cell neurons, hippocampal, dorsal root ganglion, olfactory, motor or dopaminergic neurons. The cellular monolayer is, for example NIH 3T3 fibroblasts.
Monolayers of NIH 3T3 fibroblasts were established by seeding 80,000 cells per well in Lab-Tek 8-chamber slides previously coated sequentially with poly-L-lysine and fibronectin and culturing them overnight in DMEM+10% FCS growth medium.
Cerebellum was dissected from post-natal day 2-4 rat pups and the meninges and extraneous tissue discarded. Cerebellum was chopped into small pieces and trypsinised for 10 minutes at 37° C. Trypsin was neutralised using growth medium and the cells pelletted at 1000×g for 7 minutes. Cerebellar neurons were then resuspended in SATO growth medium containing 2% FCS, counted, and plated on top of the fibroblast monolayer at a density of 1,500 neurons per well. After 16 hours, cocultures were fixed with 4% para-formaldehyde and stained with an anti-GAP43 neuron-specific antibody, which was a gift from Dr Graham Wilkin, Imperial College Department of Biochemistry, London, but any other neuron-specific marker can be used.
The mean neurite length of 150-200 neurons per well was determined using a fluorescent microscope and Zeiss KS300 imaging software.
Peptides A, A(d), B, C, D, E, and F were each incorporated in the SATO medium at a range of concentrations from 0 to 200 μg/ml. Nerve growth factor (NGF) and fibroblast growth factor (FGF2) were used as controls at the same range of concentrations.

NIH 3T3 fibroblasts = assay: survival of 3T3 fibroblasts in serum-free DMEM (MTS and morphologic method, Example 5a); format: cell-based
Description: NIH 3T3 fibroblasts were plated in each well of a 96-well microtitre plate at a density of 7,000 cells per well in DMEM containing 3% FCS and left to attach overnight. The following day the growth medium was removed and replaced with 0.1 ml DMEM supplemented with FGF or Peptide A(d) or both, eight wells for each condition. The negative control was DMEM alone (maximal cell death) and the positive control was supplementation with 0.5% FCS (maximal cell survival).
Six days later (seven days from first plating the cells), the relative number of living cells in each well was assessed by adding the mitochondrial substrate MTS, [3-(4,5-dmethylthiazol-2-yl)-5-(3-carboxymethoxyphenyl)-2-(4-sulphophenyl)-2H-tetrazolium, inner salt), for four hours before reading the optical density on a microtitre plate reader at a wavelength of 490 nm. The optical density gives a measure of the number of respiring cells present in each well at the end of the assay period.
In addition to the biochemical assay, survival was assessed qualitatively using a morphologic method in which cells were plated in 8-chamber Lab Tek slides in DbEM alone (negative control), or DMEM supplemented with 0.5 ng/ml FGF2; 0.5% FCS (positive control), or 25-200 μg/ml Peptide A(d). After three days the cells were fixed with 4% paraformaldehyde, permeablised with methanol and stained with TRITC-conjugated falloidin to visualise the cell cytoskeleton.

cerebellar neurons = assay: survival of neurons (Example 5b); format: cell-based
NIH 3T3 cells [2] = assay: NIH 3T3 cell survival MTS assay in serum-free DMEM (Example 6); format: cell-based
Description: NIH 3T3 cells are plated in 96-well plates at a density of 5,500 cells/well in 100 μl DMEM containing 0.5% FCS. After 24 hours, this medium is aspirated from the wells and replaced with 100 μl serum-free DMEM alone, or supplemented with 0.5% FCS (positive control), or a single potential survival factor, with four identical wells set up for each condition. The cells are left for up to seven days at 37 degrees and 8% CO2 before the cell survival is determined using an MTS assay. In this assay 20 μl of MTS substrate is added to each 100 μl well and the plate left in the incubator for up to four hours. Respiring cells produce a coloured reaction product that can be read using a spectrophotometer at 490 nm. […] The mean absorbance at 490 nm+/−SEM is determined for the four identically set up wells. Wells containing a known survival factor such as insulin will contain more living cells after three days than cells cultured in unsupplemented medium.

L6 cell line = assay: survival of L6 cell line lacking FGF receptors; format: cell-based; conditions: FGF2 0.1, 1 and 10 ng/ml; Peptide A(d) 100 and 400 μg/ml
Description: FIG. 2d compares the effects of DMEM, FCS, FGF2 at 0.1, 1 and 10 ng/ml, insulin at 0.5 and 5 μg/ml, and Peptide A(d) at 100 and 400 μg/ml.

MAP kinase = assay: Western blot for tyrosine phosphorylated MAP kinase in NIH 3T3 cells; format: cell-based; conditions: peptide 400 μg/ml, 10 minutes
Description: A Western blot (FIG. 2f) was obtained as follows: one million NIH 3T3 cells were serum starved for 24 hours then challenged with the following agents: DMEM, 10% FCS, 0.1 ng/ml FGF2, 1 ng/ml FGF2, 10 ng/ml FGF2, 5 μg/ml insulin, 400 μg/ml peptide 52 for 10 minutes at 37 degrees Celsius before being lysed in sample buffer and band separated by PAGE. Proteins were transferred to PVDF membranes and probed with an antibody that recognises tyrosine phosphorylated MAP kinse (upper panel).

NIH 3T3 cells [3] = assay: NIH 3T3 survival and morphology, TRITC-conjugated phalloidin staining; format: cell-based; conditions: three days; insulin 0.5 pg/ml, FGF2 0.1 ng/ml, Peptide A(d) 10 ng/ml
[4] = test system: Oligodendrocyte progenitors (O4 positive); format: cell-based, rat; conditions: six days in culture
Source text: Oligodendrocyte progenitors (O4 positive) are purified from postnatal day 4 rat cerebral cortex. First a trypsinised preparation of cortical cells is dissociated to single cell suspension and pre-plated to remove unwanted adherent cells such as microglia and macrophages. Oligodendrocyte progenitors express the O4 antigen, and can be purified by panning on petri-dishes coated with anti O4 antibodies. Unbound cells are removed by gentle washing, then O4 positive cells are removed by triturating them off the plate with DMEM containing 1% FCS, through a flame-polished pasteur pipette. O4 positive cells are plated on polyornithine-coated glass coverslips at a density of 500,000 cells per well in minimal growth medium containing insulin or the peptide Ac-DRVEPYSSTA[lys]2[lys] i.e. [{Ac-DRVEPYSSTA}2-K]2-K-OH, Peptide A(d), for six days, before being fixed and stained with the anti O4 antibody. Viable O4 positive cells are counted for each condition

[5] = test system: cells growing in the presence of FGF2 or Peptide A(d); assay: mitogenesis by observation of cells growing (rounding-up, cell number); format: cell-based
Source text: FGF stimulates axonal regeneration, cell survival and mitogenesis. […] This can be seen by the failure of Peptide A(d)-treated cells to show the rounding-up characteristic of cell division, and there is not the increase in cell number observed in the presence of a mitogenic stimulation by FGF2.

NIH3T3 cells = assay: cell survival/proliferation at two plating densities; conditions: 11,000 cells per well; FGF2 10 ng/ml
Source text: FGF2 is a mitogen for a range of cells, including NIH3T3 cells.

[6] = test system: cells in S phase (bromodeoxyuridine incorporation into DNA); assay: bromodeoxyuridine incorporation (entry into S phase) mitogenicity assay; format: cell-based; conditions: peptide, any of the concentrations tested
Description: The mitogenicity of an agent can be determined by testing its ability to stimulate entry of cells into ‘S’ phase in readiness for cell division. This is done by standard methodology and involves incubating cells in the presence of a potential mitogen in DMEM supplemented with bromodeoxyuridine. After six hours the cells are fixed and stained with an antibody recognising bromodeoxyuridine. Cells in S phase can be distinguished by their incorporation of bromodeoxyuridine into DNA.

With “I: Ac-DRVEPYSSTAKK / II: Ac-DRVEPYSSTAK / III: Ac-DRVEPYSSTA / IV: Ac-DRVEPYSSTA (amide I:11-IV:C, I:12-II:C, II:11-III:C) [Peptide A(d), [{Ac-DRVEPYSSTA}2-K]2-K-OH]” the “concentration stimulating maximal neurite outgrowth” value [1] was 400 nM, the “stimulation of neurite outgrowth (in words)” value ([1]; agent included in coculture medium, 16 hour culture) was “bi-phasic dose-response curve” and the “peptide concentration giving maximal effects in neurite outgrowth assay” value ([1]; rat cerebellar neurons on 3T3 monolayer, 16 hours) was 1.5-2.5 μg/ml and ~0.4 μM. For the same substance, the “potency in stimulating neurite outgrowth relative to the monomeric peptide” value ([1]; versus monomeric peptide) was 250 times, the “cell survival with combination” value (NIH 3T3 fibroblasts; DMEM supplemented with Peptide A(d) together with FGF2) was “greater than with either agent alone” and the “survival of 3T3 fibroblasts” value (NIH 3T3 fibroblasts; Peptide A(d) alone at 25 μg/ml) was “stimulated the survival of 3T3 fibroblasts to the same extent as 0.125 ng/ml FGF2”. The “stimulation of survival compared with positive control 0.5% FCS” value (NIH 3T3 fibroblasts; all concentrations (25-200 μg/ml)) was “at least as good as the positive control”, the “survival of cerebellar neurons” value (cerebellar neurons) was “stimulate survival of cerebellar neurons” and the “survival of NIH3T3 cells in serum-free conditions (in words)” value (NIH 3T3 cells [2]; FGF2 only at low concentrations) was “stimulates dose-dependent survival”. The “time over which survival is stimulated in serum-free conditions” value (NIH 3T3 cells [2]; maximum time tested) was “at least seven days”, the “survival of L6 cell line” value (L6 cell line) was “unable to stimulate the survival” and the MAP kinase activation (MAP kinase) was “do not”. The MAP kinase activation (MAP kinase; listed as Ac-DRVEPYSSTA[lys]2[lys]) was “do not”, the MAP kinase activation (MAP kinase; listed as peptide 52) was “did not” and the “cell survival / morphology” value (NIH 3T3 cells [3]) was “stimulate cell survival”. For the same substance, the “oligodendrocyte survival (in words)” value [4] was “dose-dependent survival effect”, the “mitogenesis (observation of cells)” value [5] was “does not stimulate mitogenesis” and the cell proliferation (NIH3T3 cells) was “does not stimulate proliferation”. The “mitogenicity (entry into S phase)” value [6] was “unable to stimulate entry into S phase; also recorded: not mitogenic at any of the concentrations tested”.

Reference: US7304129B2 (Imperial Innovations Limited, priority 2000, dated 2007)
